We go through seven molecules from patent US10471154B2, “Spirocyclic indolone polyethylene glycol carbonate compound, composition, preparation method and use thereof” (priority 2016, dated 2019).

In brackets after ≈: the same amount, converted by molar mass. Marks after values point to notes of the source that are not given here.

Data set [1] can be described thus: physchem. The note with it: 25 °C, water, thermodynamic from solid.
Data set [2] has as its system SJSA-1 xenografted tumor. The experiment in a line: Inhibitory effect on the growth of SJSA-1 xenografted tumor in nude mice. As to conditions: for Tumor volumes X ± SD (mm^3), End: End (21 days after inoculation), doxorubicin 3.0 mg/kg i.p. x6, rac-SIP 30.0 mg/kg gavage x9, SIP-PEG compounds 30.0 mg/kg i.p. x9, rac-SIP-MPEG-2000 50.0 mg/kg i.p. x9; for Tumor volumes X ± SD (mm^3), Start: Start of administration (8 days after inoculation); for Weights of Tumor X ± SD: tumor peeled off 21 days after inoculation; for Weights of Tumor X ± SD / Inhibition rate (%) on the basis of tumor volume / Inhibition rate (%) on the basis of tumor weight: doses and routes as in E5; for Inhibition rate (%) on the basis of tumor volume / Inhibition rate (%) on the basis of tumor weight: vs saline control; for Inhibition rate (%) on the basis of tumor volume: End; for inhibitory effect on tumor growth compared with PEG-free rac-SIP given by gastrointestinal administration: administered by injection, 30.0 mg/kg (rac-SIP-MPEG-2000 50.0 mg/kg). The format is in vivo. How it is done: 72 Female Balb/c/nu nude mice (weighting 15-19 g) were provided by Beijing Huafukang BioScience Co., Inc. Certificate No.: SOCK (Beijing) 2014-0004.
(§1) Doxorubicin: prepared in sterile physiological saline at a concentration of 0.3 mg/ml; the administration dosage was 3.0 mg/kg; and the administration volume was 10 ml/kg.
(§2) rac-SIP: prepared in a solvent consisting of 4% DMA, 30% PEG400, and 66% (by volume) sterile distilled water to a solution with a concentration of 1.5 mg/ml; the administration dosage was 30.0 mg/kg, and the administration volume was 20 ml/kg.
(§3) rac-SIP-PEG-2: prepared in a solvent consisting of polyoxyethylene castor oil:95% ethanol:sterile physiological saline (1.5:1.5:7 by volume) to drug solutions with concentrations of 1.5 mg/ml and 3.0 mg/ml. The administration dosages were 15.0 mg/kg and 30.0 mg/kg. The administration volume was 10 ml/kg.
(§4) rac-SIP-PEG-3: prepared in sterile physiological saline to a solution with a concentration of 3.0 mg/ml. The administration dose was 30.0 mg/kg. The administration volume was 10 ml/kg.
(§5) chiral-R-SIP-PEG-3: prepared in sterile physiological saline to a solution with a concentration of 3.0 mg/ml. The administration dose was 30.0 mg/kg. The administration volume was 10 ml/kg.
(§6) rac-SIP-PEG-7: prepared in sterile physiological saline to a solution with a concentration of 3.0 mg/ml. The administration dose was 30.0 mg/kg. The administration volume was 10 ml/kg.
(§7) The administration dose was 50.0 mg/kg. The administration volume was 10 ml/kg.
Doxorubicin: at a dose of 3.0 mg/kg, administered intraperitoneally, once every other day, for a total of 6 times.
rac-SIP: at a dose of 30.0 mg/kg, administered by gavage, once a day, 6 times a week, for a total of 9 times.
rac-SIP-PEG-2: at a dose of 30.0 mg/kg, administered intraperitoneally, once a day, 6 times a week, for a total of 9 times.
rac-SIP-PEG-3: at a dose of 30.0 mg/kg, administered intraperitoneally, once a day, 6 times a week, for a total of 9 times.
chiral-R-SIP-PEG-3: at a dose of 30.0 mg/kg, administered intraperitoneally, once a day, 6 times a week, for a total of 9 times.
rac-SIP-PEG-7: at a dose of 30.0 mg/kg, administered intraperitoneally, once a day, 6 times a week, for a total of 9 times.
(§8) Tumor cells (SJSA-1) were harvested under aseptic conditions, and were adjusted to a cell density of 1×10^7 cells/ml with sterile physiological saline. 0.2 ml was inoculated under the skin of the axilla of nude mice, and the tumor was grown to have a diameter of 1 cm. The tumor was removed under aseptic conditions and cut into tumor masses with a size of 2.0 mm×2.0 mm, and evenly inoculated under the skin of the axilla of the nude mice. When the tumor volume reached about 250 mm^3 (8 days after inoculation), the animals were administered in groups with 9 mice in each group, and the animals with poor tumor growth were excluded. The control group used physiological saline as a control. […] Body weight was weighted 3 times a week, and the length a and the width b of the tumor were measured with a vernier caliper, and the volume of the tumor was calculated according to the formula V=a×b^2/2, where a is the length of the tumor and b is the width of the tumor. 21 Days after the inoculation, the nude mice were dislocated and photographed, and then the tumor was peeled off, weighed and photographed. RTV (relative tumor volume) and tumor inhibition rate were calculated. At the same time, the peripheral blood of nude mice was taken to count blood cells.
(§9) The data were processed by EXCEL software and expressed by Mean±SD, and the inter-group analysis was statistically processed using t test.

Data set [3] is described as follows: Body weights of SJSA-1 implanted nude mice (side effects). The format is in vivo. The note with it: for Body Weights X ± SD (g), End: End (21 days after inoculation), doxorubicin 3.0 mg/kg i.p. x6, rac-SIP 30.0 mg/kg gavage x9, SIP-PEG compounds 30.0 mg/kg i.p. x9, rac-SIP-MPEG-2000 50.0 mg/kg i.p. x9; for body weight decreased, compared with the solvent control group: SIP-PEG compounds 30.0 mg/kg i.p. (MPEG-2000 50.0 mg/kg), SIP oral 30.0 mg/kg; for Body Weights X ± SD (g), Start: Start of administration, dose per group 3.0/30.0/50.0 mg/kg as in Table 1. How it is done: as §8, §9

Data set [4] in a line: Drug preparation: dissolving in physiological saline. The note with it: 3.0 mg/ml (Example 14: 5.0 mg/ml) in sterile physiological saline. The format is physicochemical. How it is done: as §1, §2, §3, §4, §5, §6, §7

Turning to `COc1cc(C(=O)O)ccc1NC(=O)[C@@H]1N[C@@H](CC(C)(C)C)[C@@]2(C(=O)Nc3cc(Cl)ccc32)[C@H]1c1cccc(Cl)c1F` (racemic) [rac-SIP-acid, rac-4-((2′S,3′R,4′S,5′R)-6-chloro-4′-(3-chloro-2-fluorophenyl)-2′-neopentyl-2-oxospiro[indoline-3,3′-pyrrolidine]-5′-carboxamido)-3-methoxybenzoic acid, reference compound], the solubility (in general, the concentration that dissolves in the medium under given conditions) at 24 h in data set [1] was < 100 µg/mL.
Consider `COc1cc(C(N)=O)ccc1NC(=O)[C@@H]1N[C@@H](CC(C)(C)C)C2(C(=O)Nc3cc(Cl)ccc32)[C@H]1c1cccc(Cl)c1F` (mixture of isomers) [rac-SIP, rac-spiroindolinone pyrrolidinecarboxamide, reference compound], for which, in data set [2], the “Tumor volumes X ± SD (mm^3), End” value is listed as 1273.7 ± 506.9*** mm^3; the “Tumor volumes X ± SD (mm^3), Start” value is listed as 249.4 ± 59.5 mm^3; the “Weights of Tumor X ± SD” value came to 1.37 ± 0.55 g; the “Inhibition rate (%) on the basis of tumor volume” value was determined as 54.89%. Further, the “Inhibition rate (%) on the basis of tumor weight” value in data set [2] amounted to 49.69%. Also, in data set [3], the “Body Weights X ± SD (g), End” value is 14.1 ± 1.6 g; the “body weight decreased, compared with the solvent control group” value (shortened to “body weight decreased”) was “about 18%”; the “Body Weights X ± SD (g), Start” value is on record as 17.1 ± 0.8 g. Also, in data set [1], the solubility at 24 h was < 100 µg/mL.
As for `COc1cccc2c1C(=O)c1c(O)c3c(c(O)c1C2=O)C[C@@](O)(C(=O)CO)C[C@@H]3O[C@H]1C[C@H](N)[C@H](O)[C@H](C)O1` [Doxorubicin ADM, Doxorubicin, reference compound], in data set [2], the “Tumor volumes X ± SD (mm^3), End” value is on record as 1401.1 ± 658.2*** mm^3; the “Tumor volumes X ± SD (mm^3), Start” value amounted to 241.1 ± 46.6 mm^3; the “Weights of Tumor X ± SD” value turned out to be 1.41 ± 0.66 g; the “Inhibition rate (%) on the basis of tumor volume” value came to 50.38%. Also, the “Inhibition rate (%) on the basis of tumor weight” value in data set [2] worked out at 48.27%. Also, in data set [3], the “Body Weights X ± SD (g), End” value worked out at 13.7 ± 0.7 g and the “Body Weights X ± SD (g), Start” value is listed as 17.4 ± 0.7 g.
Take “Rac-4-((2′S,3′R,4′S,5′R)-6-chloro-4′-(3-chloro-2-fluorophenyl)-2′-neopentyl-2-oxospiro[indoline-3,3′-pyrrolidine]-5′-carboxamido)-3-methoxybenzoic acid methoxy polyethylene glycol 2000 carbonate [rac-SIP-MPEG-2000]”: in data set [2], the “Tumor volumes X ± SD (mm^3), End” value is given as 102.5 ± 58.5*** mm^3; the “Tumor volumes X ± SD (mm^3), Start” value worked out at 251.3 ± 39.8 mm^3; the “inhibitory effect on tumor growth compared with PEG-free rac-SIP given by gastrointestinal administration” value was “stronger inhibitory effect”; the “Weights of Tumor X ± SD” value is listed as 0.09 ± 0.09 g. In data set [2], the “Inhibition rate (%) on the basis of tumor volume” value was 96.02% and the “Inhibition rate (%) on the basis of tumor weight” value is 96.70%. Further, in data set [3], the “Body Weights X ± SD (g), End” value turned out to be 16.3 ± 1.5 g; the “body weight decreased” value is on record as “about 5.2%”; the “Body Weights X ± SD (g), Start” value came out at 17.4 ± 1.0 g. Besides, in data set [4], the “dissolving in physiological saline for administration” value (“dissolving in physiological saline” for short) was “could be directly dissolved in physiological saline”.
As for `COCCOCCOCCOCCOCCOCCOCCOC(=O)OC(C)OC(=O)c1ccc(NC(=O)[C@@H]2N[C@@H](CC(C)(C)C)[C@@]3(C(=O)Nc4cc(Cl)ccc43)[C@H]2c2cccc(Cl)c2F)c(OC)c1` (mixture of isomers) [rac-SIP-PEG-7, Rac-24-oxo-2,5,8,11,14,17,20,23,25-nonoxaheptacosan-26-yl-4-((2′S,3R,4′S,5′R)-6-chloro-4′-(3-chloro-2-fluorophenyl)-2′-neopentyl-2-oxospiro[indoline-3,3′-pyrrolidine]-5′-carboxamido)-3-methoxybenzoate], in data set [2], the “Tumor volumes X ± SD (mm^3), End” value was 93.2 ± 65.2*** mm^3; the “Tumor volumes X ± SD (mm^3), Start” value is on record as 247.6 ± 57.4 mm^3; the “inhibitory effect on tumor growth compared with PEG-free rac-SIP given by gastrointestinal administration” value is on record as “stronger inhibitory effect”; the “Weights of Tumor X ± SD” value turned out to be 0.08 ± 0.14 g. In addition, in data set [2], the “Inhibition rate (%) on the basis of tumor volume” value came to 96.38% and the “Inhibition rate (%) on the basis of tumor weight” value is recorded as 97.06%. In data set [3], the “Body Weights X ± SD (g), End” value is on record as 16.1 ± 1.6 g; the “body weight decreased” value is on record as “about 6.4%”; the “Body Weights X ± SD (g), Start” value is listed as 17.1 ± 0.7 g. Moreover, the “dissolving in physiological saline” value in data set [4] is on record as “could be directly dissolved in physiological saline”. The molecule further had a solubility at 24 h in data set [1] of 30000 µg/mL (≈ 29300 µM).
Turning to `COCCOCCOC(=O)OC(C)OC(=O)c1ccc(NC(=O)[C@@H]2N[C@@H](CC(C)(C)C)[C@@]3(C(=O)Nc4cc(Cl)ccc43)[C@H]2c2cccc(Cl)c2F)c(OC)c1` (mixture of isomers) [rac-SIP-PEG-2, Rac-9-oxo-2,5,8,10-tetraoxadodecan-11-yl-4-((2′S,3R,4′S,5′R)-6-chloro-4′-(3-chloro-2-fluorophenyl)-2′-neopentyl-2-oxospiro[indoline-3,3′-pyrrolidine]-5′-carboxamido)-3-methoxybenzoate], in data set [2], the “Tumor volumes X ± SD (mm^3), End” value is given as 1260.8 ± 597.6*** mm^3; the “Tumor volumes X ± SD (mm^3), Start” value stood at 242.6 ± 49.9 mm^3; the “inhibitory effect on tumor growth compared with PEG-free rac-SIP given by gastrointestinal administration” value is “slightly better inhibitory effect”; the “Weights of Tumor X ± SD” value worked out at 1.35 ± 0.64 g. In addition, in data set [2], the “Inhibition rate (%) on the basis of tumor volume” value is 55.36% and the “Inhibition rate (%) on the basis of tumor weight” value was 50.55%. Also, in data set [3], the “Body Weights X ± SD (g), End” value is 15.4 ± 1.0 g; the “body weight decreased” value was “about 9.4%”; the “Body Weights X ± SD (g), Start” value was 17.0 ± 1.1 g. The solubility at 24 h in data set [1] was > 400 µg/mL.
`COCCOCCOCCOC(=O)OC(C)OC(=O)c1ccc(NC(=O)[C@@H]2N[C@@H](CC(C)(C)C)[C@@]3(C(=O)Nc4cc(Cl)ccc43)[C@H]2c2cccc(Cl)c2F)c(OC)c1` (mixture of isomers) [rac-SIP-PEG-3, Rac-12-oxo-2,5,8,11,13-pentaoxapentadecan-14-yl-4-((2′S,3R,4′S,5′R)-6-chloro-4′-(3-chloro-2-fluorophenyl)-2′-neopentyl-2-oxospiro[indoline-3,3′-pyrrolidine]-5′-carboxamido)-3-methoxybenzoate]: in data set [2], the “Tumor volumes X ± SD (mm^3), End” value is on record as 260.1 ± 219.3*** mm^3; the “Tumor volumes X ± SD (mm^3), Start” value stood at 246.4 ± 23.6 mm^3; the “inhibitory effect on tumor growth compared with PEG-free rac-SIP given by gastrointestinal administration” value is given as “stronger inhibitory effect”; the “Weights of Tumor X ± SD” value was found to be 0.20 ± 0.20 g. In data set [2], the “Inhibition rate (%) on the basis of tumor volume” value was determined as 90.79% and the “Inhibition rate (%) on the basis of tumor weight” value is 92.86%. Moreover, in data set [3], the “Body Weights X ± SD (g), End” value is given as 15.9 ± 1.8 g; the “body weight decreased” value is “about 7.5%”; the “Body Weights X ± SD (g), Start” value worked out at 17.2 ± 0.7 g. In addition, the “dissolving in physiological saline” value in data set [4] is listed as “could be directly dissolved in physiological saline”. For the same molecule, in data set [1], the solubility at 24 h is > 3000 µg/mL.
